Measurements reported in patent publication EP4623911A1, “PI4KB INHIBITORS FOR THE TREATMENT OF FATTY LIVER DISEASE” (ETH Zurich, priority 2024, dated 2025).

Tested on: ATGL
Assay: ATGL protein quantification via immunoblot in HEK293T cell type
Type: cell-based, human
Settings: Golgi Ptdlns4P depleted by UCB9608, then glucose deprivation
Procedure: HEK293T and HEK293-AAV cell types were cultured in DMEM (high glucose) with 10% FBS and 1% Pen/Strep. HEK293-AAV cell type was used for imaging whereas HEK293T cells were adopted for the rest of the work. To overexpress EGFP-P4M, EGFP-SACM1L, EGFP-SACM1LK2A, ATGL-FLAG, ATGL-HA, ATGLK0-HA and FBXW8-FLAG in the HEK cells, Lipofectamine 2000 was used to deliver these plasmids for 24 h expression at 60-80% cell confluence according to the manufacturer's instructions, followed by specific treatments based on experimental designs. To image LDs abundance, HEK293-AAV cell type was induced by 200 µM oleic acid (OA, 01008 from Sigma) conjugated to bovine serum albumin (BSA, A6003 from Sigma) to generate LDs for 24 h prior to 4% PFA fixation. Afterwards, cells were stained by BODIPY 493/503 and Hoechst 33342 for LDs and nuclei labelling, respectively. In other conditions, HEK cells were not treated with OA containing medium. […]
Adipose depots, liver pieces, differentiated iBAs, HepG2, HEK293T and HEK293-AAV cell types were homogenized in RIPA buffer (50 mM Tris-HCl pH 7.4, 150 mM NaCl, 2 mM EDTA, 1.0% Triton X100, 0.5% sodium deoxycholate) with protease inhibitors (Complete, Roche) and phosphatase inhibitors (Halt phosphatase inhibitor cocktail, ThermoFisher). […] The concentration of WCE was determined by DC Protein Assay (Bio-Rad). […]

COc1ccc(NC(=O)N2CCN(c3nc(N)nc4c3cnn4C)[C@@H](C)C2)c(C)c1 [UCB9608]
ATGL response to glucose deprivation: loss of ATGL regulation
